Results published in patent publication US4228274A, “1-Substituted glycopyranosides” (Merck & Co., Inc., priority 1978, dated 1980).
“And” between values parts separate entries of the source, which are not always exact repeats. Equal entries are not always repeated.

How the values were obtained:
[1] = tested on: fat cells (isolated adipose cells); test: In Vitro Fat Cell Bioassay (insulin-like activity, conversion of glucose-1-14C to 14CO2); format: cell-based; settings: for 14-CO2: average CPM, baseline not subtracted, repeat lines are separate runs
Protocol: It is known that fat cells incubated in Krebs-Ringer bicarbonate buffer containing glucose and albumin convert glucose-1-^14 C to ^14 CO2. […] This is the basis of the bioassay of insulin-like activity described in J. Gliemann, Diabetes, 14, 643(1965). The method for preparing the necessary isolated adipose cells retaining their metabolic activity is described in M. Rodbell, J. Biol. Chem., 239, 375(1964).
The compounds of the present invention have been bioassayed for their insulin-like activity essentially by the process set forth in Gliemann and Rodbell.
*All compounds were tested at 100 μg./ml.
**Insulin standard at 25 μu/ml.
1. An average CPM value is taken of each group.
2. The average value of Baseline (Buffer control) is subtracted from the
average of each of the remaining groups.
3. In order to obtain Relative Activity percentage, the average CPM value
for each compound (minus the average CPM value of the control group) is
divided by the average CPM value in the insulin standard (minus the
average CPM value of the controls), and the resultant value multiplied by
100 to obtain % activity.

[2] = tested on: fat cells (isolated adipose cells); settings: fat cells in Krebs-Ringer bicarbonate buffer containing glucose and albumin; known from Gliemann; cited from earlier work
[3] = compounds tested at 100 μg./ml, baseline subtracted, relative to insulin standard 25 μu/ml = 100%

**Q.** With `NCCCCCCC(=O)N[C@@H]1O[C@H](CO)[C@@H](O)[C@H](O)[C@@H]1O` [1-[(7-aminoheptanoyl)amino]-1-deoxy-β-D-mannopyranoside] as the compound, how does the 14-CO2 ([1]; compounds tested at 100 μg./ml) read?
**A.** 1952 cpm

**Q.** And the activity at 100 µg/mL [1, 3]?
**A.** 26%

**Q.** With Insulin: Insulin standard at 25 μu/ml as the compound, how does the “Relative Activity %” value ([1]; Insulin standard at 25 μu/ml, reference set to 100%) read?
**A.** 100%

**Q.** What about the “stimulation of 14CO2 production” value [2] of the same compound?
**A.** stimulation of severalfold

**Q.** With `NCCCCCCS[C@@H]1O[C@H](CO)[C@@H](O)[C@H](O)[C@@H]1O` [1-[(6-aminohexyl)thio]-1-deoxy-β-D-mannopyranoside] as the compound, how does the 14-CO2 ([1]; compounds tested at 100 μg./ml) read?
**A.** 4898 cpm and 5177 cpm

**Q.** And the “Relative Activity %” value [1, 3]?
**A.** 78%

**Q.** What about the activity at 100 µg/mL [1, 3] of the same compound?
**A.** 93%

**Q.** Which 14-CO2 ([1]; compounds tested at 100 μg./ml) does the source give for `NCCCCCCO[C@H]1O[C@H](CO)[C@@H](O)[C@H](O)[C@@H]1O` [1-(6-aminohexyl) α-D-mannopyranoside, 1-(6-aminohexyl)-α-D-mannopyranoside] here?
**A.** 3330 cpm

**Q.** And the activity at 100 µg/mL [1, 3]?
**A.** 28%
